The results in this text go back to patent publication EP1699833B1, “OLIGOMERS CONTAINING N-ACETYL GLUCOSAMINE” (Council of Scientific and Industrial Research, priority 2003, dated 2005).

For the assay, the target named is lysozyme (Gallus gallus, UniProt P00698). Briefly: Relative inhibition of lysozyme (lysis of Micrococcus lysodeikticus, absorbance at 450 nm). The following applies: Micrococcus lysodeikticus substrate, phosphate buffer pH 6.2, 20° C; for pIC50: read-out: I50; for concentration at maximum inhibition: concentration at Imax; for Imax: maximum inhibition. It counts as biochemical. How it is done: This example describes estimation of relative inhibition of lysozyme by polyvalent oligomer containing NAG
Chain of lysozyme (P00698 19-147): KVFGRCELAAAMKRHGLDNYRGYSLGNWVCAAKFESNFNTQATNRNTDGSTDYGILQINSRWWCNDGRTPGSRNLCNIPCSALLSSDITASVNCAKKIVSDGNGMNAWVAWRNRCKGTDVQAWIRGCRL
1.5 % w/v stock solutions of oligomer containing NAG was prepared in 0.0066 M phosphate buffer pH 6.2 containing 0.0154 m sodium chloride and 0.008 M sodium azide. One milliliter of stock solution containing different ligand concentration was mixed with 1.6 ml of 78 µg1ml of Micrococcus lysodeikticus in a 3-ml capacity lass cuvette. The mixture was incubated for 5 minutes at 20° C. To this mixture 0.1 ml of lysozyme (27 µg1ml) was added and mixed thoroughly. The absorbance at 450 nm (Δ450) was recorded for 30 seconds. A blank reading without the polymer ligand was noted and the change in the absorbance per second was calculated.

pIC50: −log10 of the molar value.

As for “Methacryloyl N-Acetyl Glucosamine [M.Ac. NAG]”, the pIC50 is 1.74, the “concentration at maximum inhibition” value stood at 21.2 mM and the Imax is reported as 71.89.
In the case of `CC(=O)N[C@H]1C(O)O[C@H](CO)[C@@H](O)[C@@H]1O` (stereo partly shown) [NAG, N-Acetyl Glucosamine], the “concentration at maximum inhibition” value is reported as 92.50 mM and the Imax was found to be 55.29.
`C=CC(=O)OCC1OC(O)C(NC(C)=O)C(O)C1O` (stereo not shown) [Ac .NAG, Acryloyl N-Acetyl Glucosamine]: the pIC50 is 1.83 and the Imax was 50.00.
